Measurements: US11180504B2 (ORCHID PHARMA LTD., priority 2016, dated 2021)
Values after ≈ are worked out from the molar mass of the structure shown. Where two headings read alike, the source gives them in different places.

Experiments:
[1] = test system: carbapenemase producing K. pneumoniae; assay: MIC by broth micro-dilution (CLSI), carbapenemase producing K. pneumoniae; assay type: cell-based, Klebsiella pneumoniae
[2] = test system: carbapenem sensitive Escherichia coli; assay: MIC by broth micro-dilution (CLSI), carbapenem sensitive E. coli; assay type: cell-based
[3] = test system: methicillin-sensitive Staphylococcus aureus; assay: MIC by broth micro-dilution (CLSI), methicillin-sensitive S. aureus; assay type: cell-based; details: MSSA S. aureus ATCC29213
[4] = test system: carbapenem sensitive Pseudomonas aeruginosa; assay: MIC by broth micro-dilution (CLSI), carbapenem sensitive P. aeruginosa; assay type: cell-based
[5] = Klebsiella pneumoniae, ATCCBAA1705, KPC-2 K. pneumoniae ATCC BAA-1705, read-out: MIC
[6] = Escherichia coli, ATCC25922, ESBL −ve E. coli ATCC25922, read-out: MIC
[7] = Staphylococcus aureus, ATCC 29213 / MSSA, read-out: MIC
[8] = Pseudomonas aeruginosa, ATCC27853, Meropenem susceptible P. aeruginosa ATCC27853, read-out: MIC

SMILES	MIC [1, 5] [µg/mL]	MIC [2, 6] [µg/mL]	MIC [3, 7] [µg/mL]	MIC [4, 8] [µg/mL]	MIC ([1]; KPC-2 K. pneumoniae ATCC BAA-1705) [µg/mL]	MIC ([2]; ESBL −ve E. coli ATCC25922) [µg/mL]	MIC [3] [µg/mL]	MIC ([4]; Meropenem susceptible P. aeruginosa ATCC27853) [µg/mL]
C[C@@H](NC(=O)CN1CCCC1)[C@H]1C(=O)N2C(C(=O)O)=C(S[C@@H]3CN[C@H](C(=O)N(C)C)C3)[C@H](C)[C@H]12 [Example 458, (4R,5S,6R)-3-((3S,5S)-5-(dimethylcarbamoyl)pyrrolidin-3-ylthio)-4-methyl-7-oxo-6-((R)-1-(2-(pyrrolidin-1-yl)acetamido)ethyl)-1-azabicyclo[3.2.0)hept-2-eoe-2-carboxylic acid]	1 (≈ 2.03 µM)	0.5 (≈ 1.01 µM)	16 (≈ 32.4 µM)	16 (≈ 32.4 µM)				
C[C@@H](NC(=O)Cc1nnn(C)n1)[C@H]1C(=O)N2C(C(=O)O)=C(S[C@@H]3CN[C@H](C(=O)N(C)C)C3)[C@H](C)[C@H]12 [Example 301, (4R,5S,6R)-3-((3S,5S)-5-(dimethylcarbamoyl)pyrrolidin-3-ylthio)-4-methyl-6-((R) - 1-(2-(2-methyl-2H-tetrazol-5-yl)acetamido)ethyl)-7-oxo-1-azabicyclo[3.2.0]hept-2-ene-2-carboxylic acid]	64 (≈ 126 µM)	4 (≈ 7.9 µM)	16 (≈ 31.6 µM)	> 128				
C[C@@H](NC(=O)CN1CCC2CNCCC21)[C@H]1C(=O)N2C(C(=O)O)=C(S[C@@H]3CN[C@H](C(=O)N(C)C)C3)[C@H](C)[C@H]12 (single isomer, unassigned) [Example 519]	16 (≈ 29.2 µM)	2 (≈ 3.64 µM)	16 (≈ 29.2 µM)	> 128				
C[C@@H](NC(=O)Cn1cnnn1)[C@H]1C(=O)N2C(C(=O)O)=C(S[C@@H]3CN[C@H](C(=O)N4CCN[C@@H](CN)C4)C3)[C@H](C)[C@H]12 [Example 485, (4R,5S,6R)-6-((R)-1-(2-(1H-tetrazol-1-yl)acetamido)ethyl)-3-((3S,5S)-5-((S)-3-(aminomethyl)piperazine-1-carbonyl)pyrrolidin-3-ylthio)-4-methyl-7-oxo-1-azabicyclo[3.2.0]hept-2-ene-2-carboxylic acid]	4 (≈ 7.11 µM)	0.5 (≈ 0.889 µM)	8 (≈ 14.2 µM)	4 (≈ 7.11 µM)				
C[C@@H](NC(=O)Cn1cnnn1)[C@H]1C(=O)N2C(C(=O)O)=C(S[C@@H]3CN[C@H](C(=O)N4C[C@H](N)C[C@H]4CNS(N)(=O)=O)C3)[C@H](C)[C@H]12 [Example 455, (4R,5S,6R)-6-((R)-1-(2-(1H-tetrazol-1-yl)acetamido)ethyl)-3-((3S,5S)-5-((2S,4R)-4-amino-2-((sulfamoylamino)methyl)pyrrolidine-1-carbonyl)pyrrolidin-3-ylthio)-4-methyl-7-oxo-1-azabicyclo[3.2.0]hept-2-ene-2-carboxylic acid]	2 (≈ 3.12 µM)	0.5 (≈ 0.779 µM)	4 (≈ 6.23 µM)	4 (≈ 6.23 µM)				
CNCC(=O)N[C@H](C)[C@H]1C(=O)N2C(C(=O)O)=C(S[C@@H]3CN[C@H](C(=O)N4CCC(C)(N)CC4)C3)[C@H](C)[C@H]12 [Example 278]	2 (≈ 3.83 µM)	2 (≈ 3.83 µM)	16 (≈ 30.6 µM)	4 (≈ 7.65 µM)				
C[C@@H](NC(=O)Cn1nnnc1N(C)C)[C@H]1C(=O)N2C(C(=O)O)=C(S[C@@H]3CN[C@H](C(=O)N4CC[C@@H](N)C4)C3)[C@H](C)[C@H]12 [Example 384, (4R,5S,6R)-3-((3S,5S)-5-((R)-3-aminopyrrolidine-1-carbonyl)pyrrolidin-3-ylthio)-6-((R)-1-(2-(5-(dimethylamino)-1H-tetrazol-1-yl)acetamido)ethyl)-4-methyl-7-oxo-1-azabicyclo[3.2.0]hept-2-ene-2-carboxylic acid]	4 (≈ 6.94 µM)	0.5 (≈ 0.867 µM)	4 (≈ 6.94 µM)	64 (≈ 111 µM)				
C[C@@H](NC(=O)Cn1cnnn1)[C@H]1C(=O)N2C(C(=O)O)=C(S[C@@H]3CN[C@H](C(=O)N4CCN(C[C@H](O)CN)CC4)C3)[C@H](C)[C@H]12 [Example 450, (4R,5S,6R)-6-((R)-1-(2-(1H-tetrazol-1-yl)acetamido)ethyl)-3-((3S,5S)-5-(4-((R)-3-amino-2-hydroxypropyl)piperazine-1-carbonyl)pyrrolidin-3-ylthio)-4-methyl-7-oxo-1-azabicyclo[3.2.0]hept-2-ene-2-carboxylic acid]	1 (≈ 1.65 µM)	0.25 (≈ 0.412 µM)	8 (≈ 13.2 µM)	1 (≈ 1.65 µM)				
C[C@@H](NC(=O)Cn1cnnn1)[C@H]1C(=O)N2C(C(=O)O)=C(S[C@@H]3CN[C@H](C(=O)N4CC(N)C(N)C4)C3)[C@H](C)[C@H]12 (stereo partly drawn) [Example 413, (4R,5S,6R)-6-((R)-1-(2-(1H-tetrazol-1-yl)acetamido)ethyl)-3-((3S,5S)-5-(3,4-diaminopyrrolidine-1-carbonyl)pyrrolidin-3-ylthio)-4-methyl-7-oxo-1-azabicyclo[3.2.0]hept-2-ene-2-carboxylic acid]	2 (≈ 3.65 µM)	0.25 (≈ 0.456 µM)	2 (≈ 3.65 µM)	2 (≈ 3.65 µM)				
CNCC(=O)N[C@H](C)[C@H]1C(=O)N2C(C(=O)O)=C(S[C@@H]3CN[C@H](C(=O)N4CC5CC4CN5)C3)[C@H](C)[C@H]12 (stereo partly drawn) [Example 290]	4 (≈ 7.9 µM)	2 (≈ 3.95 µM)	32 (≈ 63.2 µM)	8 (≈ 15.8 µM)				
CNCC(=O)N[C@H](C)[C@H]1C(=O)N2C(C(=O)O)=C(S[C@@H]3CN[C@H](C(=O)N4C[C@H](N)C[C@H]4c4ccccc4)C3)[C@H](C)[C@H]12 [Example 288]	16 (≈ 28 µM)	4 (≈ 7.01 µM)	128 (≈ 224 µM)	> 128				
CNCC(=O)N[C@H](C)[C@H]1C(=O)N2C(C(=O)O)=C(SCCn3cc(O)c(=O)cc3CN)[C@H](C)[C@H]12 [Example 257]	16 (≈ 33.4 µM)	4 (≈ 8.34 µM)	> 128	128 (≈ 267 µM)				
C[C@@H](NC(=O)Cn1cnnn1)[C@H]1C(=O)N2C(C(=O)O)=C(S[C@@H]3CN[C@H](C(=O)N4CC(O)C(CN)C4)C3)[C@H](C)[C@H]12 (single isomer, unassigned) [Example 511]					2 (≈ 3.55 µM)	0.25 (≈ 0.444 µM)	4 (≈ 7.1 µM)	1 (≈ 1.77 µM)
C[C@@H](NC(=O)Cn1cnnn1)[C@H]1C(=O)N2C(C(=O)O)=C(S[C@@H]3CN[C@H](C(=O)N4CC[C@H](N)C4)C3)[C@H](C)[C@H]12 [Example 324]	4 (≈ 7.5 µM)	0.5 (≈ 0.937 µM)	4 (≈ 7.5 µM)	4 (≈ 7.5 µM)				
C[C@@H](NC(=O)Cn1cnnn1)[C@H]1C(=O)N2C(C(=O)O)=C(S[C@@H]3CN[C@H](C(=O)N4CCN(C5CNC5)CC4)C3)[C@H](C)[C@H]12 [Example 408, (4R,5S,6R)-6-((R)-1-(2-(1H-tetrazol-1-yl)acetamido)ethyl)-3-((3S,5S)-5-(4-(azetidin-3-yl)piperazine-1-carbonyl)pyrrolidin-3-ylthio)-4-methyl-7-oxo-1-azabicyclo[3.2.0]hept-2-ene-2-carboxylic acid]	2 (≈ 3.4 µM)	1 (≈ 1.7 µM)	4 (≈ 6.79 µM)	2 (≈ 3.4 µM)				
C[C@@H](NC(=O)Cn1cnnn1)[C@H]1C(=O)N2C(C(=O)O)=C(Sc3cnn(C[C@@H]4CCNC4)c3)[C@H](C)[C@H]12 [Example 593, (4R,5S,6R)-6-((R)-1-(2-(1H-tetrazol-1-yl)acetamido)ethyl)-4-methyl-7-oxo-3-(1-((R)-pyrrolidin-3-ylmethyl)-1H-pyrazol-4-ylthio)-1-azabicyclo[3.2.0]hept-2-ene-2-carboxylic acid]	32 (≈ 63.8 µM)	1 (≈ 1.99 µM)	16 (≈ 31.9 µM)	128 (≈ 255 µM)				
C[C@@H](NC(=O)Cn1cnnn1)[C@H]1C(=O)N2C(C(=O)O)=C(S[C@@H]3CN[C@H](C(=O)N4C[C@H](CO)[C@@H](NC(=N)N)C4)C3)[C@H](C)[C@H]12 [Example 592, (4R,5S,6R)-6-((R)-1-(2-(1H-tetrazol-1-yl)acetamido)ethyl)-3-((3S,5S)-5-((3R,4S)-3-guanidino-4-diazabicyclo[3.2.0]heptane-3-(hydroxymethyl)pyrrolidine-1-carbonyl)pyrrolidin-3-ylthio)-4-methyl-7-oxo-1-azabicyclo[3.2.0]hept-2-ene-2-carboxylic acid]	0.5 (≈ 0.826 µM)	0.125 (≈ 0.206 µM)	2 (≈ 3.3 µM)	0.5 (≈ 0.826 µM)				
C[C@@H](NC(=O)Cn1cnnn1)[C@H]1C(=O)N2C(C(=O)O)=C(S[C@@H]3CN[C@H](C(=O)N4CC[N+](C)(C)CC4)C3)[C@H](C)[C@H]12 [Example 360, 4-((2S,4S)-((4R,5S,6R)-6-((R)-1-(2-(1H-tetrazol-1-yl)acetamido)ethyl)-2-carboxy-4-methyl-7-oxo-1-azabicyclo[3.2.0]hept-2-en-3-ylthio)pyrrolidine-2-carbonyl)-1,1-dimethylpiperazin-1-ium iodide]	2	0.5	8	1				
C[C@@H](NC(=O)C(F)F)[C@H]1C(=O)N2C(C(=O)O)=C(S[C@@H]3CN[C@H](C(=O)C4C[C@@H](N)C[C@H]4CF)C3)[C@H](C)[C@H]12 (stereo partly drawn) [Example 251]	0.5 (≈ 0.939 µM)	0.25 (≈ 0.469 µM)	0.5 (≈ 0.939 µM)	32 (≈ 60.1 µM)				
CNCC(=O)N[C@H](C)[C@H]1C(=O)N2C(C(=O)O)=C(S[C@@H]3CN[C@H](C(=O)N4CC[C@H](N)C[C@@H]4C)C3)[C@H](C)[C@H]12 [Example 264]	4 (≈ 7.65 µM)	2 (≈ 3.83 µM)	16 (≈ 30.6 µM)	8 (≈ 15.3 µM)				
C[C@@H](NC(=O)Cn1cnnn1)[C@H]1C(=O)N2C(C(=O)O)=C(S[C@@H]3CN[C@H](C(=O)N4CCC(CNCC(N)=O)CC4)C3)[C@H](C)[C@H]12 [Example 437, (4R,5S,6R)-6-((R)-1-(2-(1H-tetrazol-1-yl)acetamido)ethyl)-3-((3S,5S)-5-(4-((2-amino-2-oxoethylamino)methyl)piperidine-1-carbonyl)pyrrolidin-3-ylthio)-4-methyl-7-oxo-1-azabicyclo[3.2.0]hept-2-ene-2-carboxylic acid]	1 (≈ 1.62 µM)	0.25 (≈ 0.404 µM)	2 (≈ 3.23 µM)	2 (≈ 3.23 µM)				
